Consider 40 compounds from US8067460B2 (The Regents of the University of Califonia, priority 2004, dated 2011).

Read-outs that look alike come from different tables or passages of the source. No end group written: not given here.

The target of one assay is Kv1.3 (Mus musculus, UniProt P16390). Description: Inhibitory effect on K+ channels (Appendix A): Kv1.3. Particulars: for nH (Kv1.3): Hill coefficient printed beside the Kv1.3 EC50; for selectivity for Kv1.3 channels over Kv1.5 channels: Kv1.3 versus Kv1.5, from Appendix A. In kind it is cell-based.
Chain of Kv1.3 (P16390 whole entry): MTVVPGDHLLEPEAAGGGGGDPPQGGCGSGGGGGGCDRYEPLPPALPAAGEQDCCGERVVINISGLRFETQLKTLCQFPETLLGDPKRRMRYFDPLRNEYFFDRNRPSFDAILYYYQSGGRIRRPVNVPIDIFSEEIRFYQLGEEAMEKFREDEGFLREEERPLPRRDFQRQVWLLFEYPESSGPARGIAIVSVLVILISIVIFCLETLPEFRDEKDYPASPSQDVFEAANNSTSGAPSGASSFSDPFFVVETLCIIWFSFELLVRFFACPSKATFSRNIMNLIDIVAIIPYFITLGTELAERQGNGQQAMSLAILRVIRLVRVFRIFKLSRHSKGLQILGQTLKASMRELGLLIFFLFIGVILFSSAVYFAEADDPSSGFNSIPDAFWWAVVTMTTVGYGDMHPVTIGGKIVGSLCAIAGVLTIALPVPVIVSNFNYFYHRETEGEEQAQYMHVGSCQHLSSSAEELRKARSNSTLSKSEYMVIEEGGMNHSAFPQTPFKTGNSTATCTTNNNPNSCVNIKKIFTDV
In a further assay the target is Kv1.5 (Homo sapiens, UniProt P22460). Kind of assay: Inhibitory effect on K+ channels (Appendix A): Kv1.5. Particulars: for nH (Kv1.5): Hill coefficient printed beside the Kv1.5 EC50. It is filed as cell-based.
Chain of Kv1.5 (P22460 whole entry): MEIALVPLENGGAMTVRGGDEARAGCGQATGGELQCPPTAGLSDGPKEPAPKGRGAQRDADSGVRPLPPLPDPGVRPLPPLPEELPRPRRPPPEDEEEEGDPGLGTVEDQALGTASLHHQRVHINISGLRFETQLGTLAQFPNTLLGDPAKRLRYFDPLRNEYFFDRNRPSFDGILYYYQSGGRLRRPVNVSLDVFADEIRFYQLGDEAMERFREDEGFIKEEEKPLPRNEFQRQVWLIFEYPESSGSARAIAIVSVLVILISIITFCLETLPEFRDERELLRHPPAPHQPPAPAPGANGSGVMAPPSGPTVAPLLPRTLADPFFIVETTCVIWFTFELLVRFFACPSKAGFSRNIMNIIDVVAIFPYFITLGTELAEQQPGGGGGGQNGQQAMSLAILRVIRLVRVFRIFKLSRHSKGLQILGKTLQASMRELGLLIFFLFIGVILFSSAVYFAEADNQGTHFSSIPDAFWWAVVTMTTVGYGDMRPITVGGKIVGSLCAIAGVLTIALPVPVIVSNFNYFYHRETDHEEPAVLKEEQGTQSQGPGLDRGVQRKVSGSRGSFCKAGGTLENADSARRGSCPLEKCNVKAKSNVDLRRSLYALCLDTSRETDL
The next assay deals with Kv1.1 (Homo sapiens, UniProt Q09470). Description: Inhibitory effect on K+ channels (Appendix A): Kv1.1. In kind it is cell-based.
Chain of Kv1.1 (Q09470 whole entry): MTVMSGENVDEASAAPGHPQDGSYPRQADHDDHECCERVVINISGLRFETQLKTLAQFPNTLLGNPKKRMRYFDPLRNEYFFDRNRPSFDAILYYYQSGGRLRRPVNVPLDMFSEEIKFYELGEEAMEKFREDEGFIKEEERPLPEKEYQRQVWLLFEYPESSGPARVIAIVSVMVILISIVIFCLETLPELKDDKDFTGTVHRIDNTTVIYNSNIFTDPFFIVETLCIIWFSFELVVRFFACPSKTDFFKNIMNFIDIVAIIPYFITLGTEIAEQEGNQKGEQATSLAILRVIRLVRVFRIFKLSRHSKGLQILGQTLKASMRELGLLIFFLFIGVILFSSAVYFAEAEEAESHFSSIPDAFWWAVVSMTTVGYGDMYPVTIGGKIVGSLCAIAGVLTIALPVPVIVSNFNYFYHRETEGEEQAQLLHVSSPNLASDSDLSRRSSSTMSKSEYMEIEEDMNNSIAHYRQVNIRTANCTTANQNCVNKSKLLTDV
The next assay has as its target Kv1.7 (Homo sapiens, UniProt Q96RP8). Description: Inhibitory effect on K+ channels (Appendix A): Kv1.7. In kind it is cell-based.
A further assay concerns the target BK (Homo sapiens, UniProt Q12791). Description: Inhibitory effect on K+ channels (Appendix A): BK. It is filed as cell-based.
Another assay has as its target IKCa1 (Homo sapiens, UniProt O15554). Description: Inhibitory effect on K+ channels (Appendix A): IKCa1. In kind it is cell-based.
The target of another assay is Kv1.4 (Homo sapiens, UniProt P22459). Description: Inhibitory effect on K+ channels (Appendix A): Kv1.4. It is filed as cell-based.
Chain of Kv1.4 (P22459 whole entry): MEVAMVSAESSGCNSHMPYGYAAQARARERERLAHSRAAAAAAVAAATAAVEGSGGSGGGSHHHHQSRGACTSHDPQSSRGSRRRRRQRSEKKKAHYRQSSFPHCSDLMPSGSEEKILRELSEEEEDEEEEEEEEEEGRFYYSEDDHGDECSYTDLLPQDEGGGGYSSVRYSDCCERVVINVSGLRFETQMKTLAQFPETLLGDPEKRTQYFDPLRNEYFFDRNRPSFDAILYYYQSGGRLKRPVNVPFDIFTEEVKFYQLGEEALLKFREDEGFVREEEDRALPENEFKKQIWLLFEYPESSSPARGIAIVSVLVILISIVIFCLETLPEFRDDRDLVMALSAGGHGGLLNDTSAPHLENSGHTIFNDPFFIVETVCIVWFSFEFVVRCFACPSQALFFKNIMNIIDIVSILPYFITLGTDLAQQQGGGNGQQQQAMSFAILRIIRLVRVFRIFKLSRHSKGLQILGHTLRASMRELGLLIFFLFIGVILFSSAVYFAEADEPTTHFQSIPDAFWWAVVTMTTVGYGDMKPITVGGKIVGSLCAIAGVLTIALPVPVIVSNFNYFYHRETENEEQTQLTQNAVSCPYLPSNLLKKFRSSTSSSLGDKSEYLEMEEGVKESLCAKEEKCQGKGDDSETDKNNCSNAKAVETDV
The subject of assay [1] is class-switched (IgD−CD27+) memory B cells. Particulars: cited from earlier work.
Assay [2] deals with delayed-type hypersensitivity (DTH) response. To be noted: mini-pigs, cited from earlier work.

Chain of Kv1.7 (Q96RP8 whole entry): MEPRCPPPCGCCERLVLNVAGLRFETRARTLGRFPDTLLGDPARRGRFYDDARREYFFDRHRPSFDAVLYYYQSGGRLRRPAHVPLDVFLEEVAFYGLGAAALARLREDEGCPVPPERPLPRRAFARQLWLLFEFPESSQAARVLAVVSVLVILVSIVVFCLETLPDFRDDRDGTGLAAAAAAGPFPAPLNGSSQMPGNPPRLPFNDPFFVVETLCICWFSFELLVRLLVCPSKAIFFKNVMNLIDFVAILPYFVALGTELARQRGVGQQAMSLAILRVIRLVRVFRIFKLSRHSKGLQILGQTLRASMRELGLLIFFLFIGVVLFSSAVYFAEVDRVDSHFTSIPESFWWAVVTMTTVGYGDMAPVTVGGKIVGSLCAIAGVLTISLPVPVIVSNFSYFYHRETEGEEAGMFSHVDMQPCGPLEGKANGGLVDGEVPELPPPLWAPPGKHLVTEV
Chain of BK (Q12791 whole entry): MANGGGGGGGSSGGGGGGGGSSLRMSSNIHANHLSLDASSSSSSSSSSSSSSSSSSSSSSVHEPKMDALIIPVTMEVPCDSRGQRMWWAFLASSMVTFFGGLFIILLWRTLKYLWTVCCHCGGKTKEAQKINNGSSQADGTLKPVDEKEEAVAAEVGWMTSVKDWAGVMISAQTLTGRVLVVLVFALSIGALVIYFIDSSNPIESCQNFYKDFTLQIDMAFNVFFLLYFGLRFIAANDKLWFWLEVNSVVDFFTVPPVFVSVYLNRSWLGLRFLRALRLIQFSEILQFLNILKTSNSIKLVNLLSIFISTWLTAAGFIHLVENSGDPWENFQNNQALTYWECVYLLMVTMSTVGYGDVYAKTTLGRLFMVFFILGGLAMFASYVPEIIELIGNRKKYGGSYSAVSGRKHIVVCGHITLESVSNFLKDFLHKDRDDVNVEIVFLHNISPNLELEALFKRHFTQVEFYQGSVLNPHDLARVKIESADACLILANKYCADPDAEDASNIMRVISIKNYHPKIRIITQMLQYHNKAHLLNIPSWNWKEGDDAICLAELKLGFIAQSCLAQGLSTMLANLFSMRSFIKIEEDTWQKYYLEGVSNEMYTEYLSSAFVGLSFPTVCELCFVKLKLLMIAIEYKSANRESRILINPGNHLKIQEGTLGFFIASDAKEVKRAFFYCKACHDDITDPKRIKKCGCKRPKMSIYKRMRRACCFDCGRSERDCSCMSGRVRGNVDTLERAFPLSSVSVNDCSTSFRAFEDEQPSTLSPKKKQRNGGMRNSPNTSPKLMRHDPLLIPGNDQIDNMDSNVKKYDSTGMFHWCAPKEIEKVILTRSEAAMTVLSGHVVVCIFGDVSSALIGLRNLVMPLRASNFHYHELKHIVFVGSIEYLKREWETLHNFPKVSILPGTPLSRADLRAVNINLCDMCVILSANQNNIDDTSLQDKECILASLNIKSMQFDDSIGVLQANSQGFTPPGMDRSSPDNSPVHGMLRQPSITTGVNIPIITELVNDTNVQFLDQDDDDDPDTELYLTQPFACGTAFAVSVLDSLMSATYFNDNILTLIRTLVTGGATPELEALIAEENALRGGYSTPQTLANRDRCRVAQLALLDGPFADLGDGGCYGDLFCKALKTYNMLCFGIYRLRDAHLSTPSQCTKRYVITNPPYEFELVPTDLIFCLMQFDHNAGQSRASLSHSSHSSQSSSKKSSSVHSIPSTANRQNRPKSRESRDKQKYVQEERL

In general, EC50 refers to the concentration giving half of the maximal effect. Take `O=c1ccc2c(OCCCCOc3ccc(F)cc3)c3ccoc3cc2o1`: on Kv1.3, the “nH (Kv1.3)” value stood at 2.3. Also, the EC50 on Kv1.5 amounted to 0.012 ± 0.001 µM.

As to `O=c1ccc2c(OCCCCOc3cccc(C(F)(F)F)c3)c3ccoc3cc2o1`, at Kv1.3, the “nH (Kv1.3)” value was 2.0. Further, on Kv1.5, a half-maximal response (EC50) required 0.25 µM.

With `COc1cc([N+](=O)[O-])ccc1OCCCCOc1c2ccoc2cc2oc(=O)ccc12`, a half-maximal response at Kv1.5 (EC50) required 0.476 ± 0.02 µM.

Regarding `Cc1ccc(OCCCCOc2c3ccoc3cc3oc(=O)ccc23)c([N+](=O)[O-])c1`, it took 0.248 ± 0.02 µM to reach a half-maximal effect on Kv1.5 (EC50).

`CCc1ccc(OCCCCCOc2c3ccoc3cc3oc(=O)ccc23)cc1`: on Kv1.3, the “nH (Kv1.3)” value is on record as 2.1.

On to `O=c1ccc2c(OCCCCCOc3ccccc3)c3ccoc3cc2o1`, for which the “nH (Kv1.3)” value at Kv1.3 was found to be 2.1.

For the compound `O=c1ccc2c(OCCCCOCc3ccc(F)cc3)c3ccoc3cc2o1`, the “nH (Kv1.3)” value at Kv1.3 worked out at 2.

Take `O=c1ccc2c(OCCOCc3ccccc3)c3ccoc3cc2o1`: the EC50 amounted to 0.11 ± 0.02 µM at Kv1.5 and 175 ± 20 nM at Kv1.1.

`O=c1ccc2c(OCCCCOCc3ccccc3)c3ccoc3cc2o1` returned an EC50 at Kv1.5 of 0.75 ± 0.04 µM.

`O=c1ccc2c(OCCCOCc3ccccc3)c3ccoc3cc2o1`: the midpoint of the response on Kv1.5, the EC50, lay at 0.17 ± 0.02 µM.

Consider `N#CCCCOc1c2ccoc2cc2oc(=O)ccc12`, for which the EC50 at Kv1.5 (cells printed in μM) came out at 12 µM. That is a double-digit micromolar value.

Take `N#CCCCOc1c2occc2cc2ccc(=O)oc12`: the response at Kv1.5 (cells printed in μM) was half-maximal at 10 µM (EC50). This EC50 and that of the compound before are within 1.5-fold of each other.

As to `N#CCCCCOc1c2ccoc2cc2oc(=O)ccc12`, a half-maximal effect on Kv1.5 (cells printed in μM) (EC50) was put at 5 µM.

On Kv1.5 (cells printed in μM), `N#CCCCCOc1c2occc2cc2ccc(=O)oc12` gave an EC50 of 10 µM.

With `O=c1ccc2c(OCCCCn3cccn3)c3ccoc3cc2o1`, the EC50 at Kv1.5 (cells printed in μM) came out at 5 µM.

As to `O=c1ccc2c(OCCCCNc3ccncc3)c3ccoc3cc2o1`, the EC50 at Kv1.5 (cells printed in μM) is 5 µM.

For `Cc1nnc(SCCCCOc2c3ccoc3cc3oc(=O)ccc23)s1`, the midpoint of the response on Kv1.5 (cells printed in μM), the EC50, lay at 1 µM.

Take `O=c1ccc2ccc(OCCCCOc3c4ccoc4cc4oc(=O)ccc34)cc2o1`: the concentration for a half-maximal effect (EC50) at Kv1.5 (cells printed in μM) was determined as 5 µM.

On Kv1.5, `COc1ccc2sc(SCCCCOc3c4ccoc4cc4oc(=O)ccc34)nc2c1` registered an EC50 of 0.1 µM.

`O=c1ccc2c(OCCCCSc3ncccn3)c3ccoc3cc2o1`: the EC50 at Kv1.5 was 0.159 ± 0.007 µM.

As to “4-[3-(1-Naphthyloxy)propoxy]-7H-furo[3,2-g][1]benzopyran-7-on [AS135]”, on Kv1.3, the EC50 was found to be 18 ± 1 nM and the “nH (Kv1.3)” value amounted to 2.1.

Turning to “4-[3-(3-Methoxyphenoxy)propoxy]-7H-furo[3,2-g][1]benzopyran-7-on [AS64]”, at Kv1.3, the EC50 is 42 ± 3 nM and the “nH (Kv1.3)” value was found to be 2.05.

Consider “4-[3-(4-Ethylphenoxy)propoxy]-7H-furo[3,2-g][1]benzopyran-7-on [AS123]”, for which, at Kv1.3, it took 30 ± 2 nM to reach a half-maximal effect (EC50) and the “nH (Kv1.3)” value is 1.7. Further, the “nH (Kv1.5)” value on Kv1.5 turned out to be 2.0. Besides, the EC50 at Kv1.5 (cells unit inferred) was 0.068 ± 0.003 µM.

Take “4-[3-(4-Methylphenoxy)propoxy]-7H-furo[3,2-g][1]benzopyran-7-on [AS127]”: at Kv1.3, the EC50 worked out at 25 ± 2 nM and the “nH (Kv1.3)” value worked out at 1.9. In addition, the “nH (Kv1.5)” value at Kv1.5 is listed as 1.8. Moreover, the EC50 on Kv1.5 (cells unit inferred) was 0.25 ± 0.01 µM.

In the case of `COc1ccc(OCCCCOc2c3ccoc3cc3oc(=O)ccc23)cc1` [AS67, 4-(4-[4-Methoxyphenoxy]butoxy)-7H-furo[3,2-g][1]benzopyran-7-on], the “nH (Kv1.3)” value on Kv1.3 is 2.1. Moreover, on Kv1.5, a half-maximal effect (EC50) was put at 0.01 ± 0.001 µM.

With `COc1cccc(OCCCCOc2c3ccoc3cc3oc(=O)ccc23)c1` [AS68, 4-(4-[3-Methoxyphenoxy]butoxy)-7H-furo[3,2-g][1]benzopyran-7-on], the EC50 on Kv1.5 stood at 0.045 ± 0.005 µM.

With `COc1cc(OC)cc(OCCCCOc2c3ccoc3cc3oc(=O)ccc23)c1` [AS69, 4-(4-[3,5-Dimethoxyphenoxy]butoxy)-7H-furo[3,2-g][1]benzopyran-7-on], on Kv1.5, the EC50 was 0.15 ± 0.02 µM. Compared with the last compound, the EC50 is about 3.3-fold higher.

On to `O=c1ccc2c(OCCCCOc3ccc([N+](=O)[O-])cc3)c3ccoc3cc2o1` [AS78, 4-(4-[4-Nitrophenoxy]butoxy)-7H-furo[3,2-g][1]benzopyran-7-on], for which, on Kv1.3, the “nH (Kv1.3)” value came out at 1.9 and the “selectivity for Kv1.3 channels over Kv1.5 channels” value was “selective for Kv1.3 channels over Kv1.5 channels”. The compound further returned an EC50 at Kv1.5 of 0.105 ± 0.008 µM.

For `O=c1ccc2c(OCCCCOc3ccc(Cl)cc3)c3ccoc3cc2o1` [AS84, 4-(4-[4-Chlorphenoxy]butoxy)-7H-furo[3,2-g][1]benzopyran-7-on], the “nH (Kv1.3)” value at Kv1.3 came out at 2.0. In addition, the EC50 at Kv1.5 was found to be 0.01 µM.

Take `O=c1ccc2c(OCCCCOc3ccc(Oc4ccccc4)cc3)c3ccoc3cc2o1` [AS85, 4-(4-[4-Phenoxyphenoxy]butoxy)-7H-furo[3,2-g][1]benzopyran-7-on]: the “selectivity for Kv1.3 channels over Kv1.5 channels” value at Kv1.3 is reported as “selective for Kv1.3 channels over Kv1.5 channels”. Besides, on Kv1.5, the EC50 is 0.75 µM.

Consider `Cc1ccc(OCCCCOc2c3ccoc3cc3oc(=O)ccc23)cc1` [AS96, 4-(4-[4-Methylphenoxy]butoxy)-7H-furo[3,2-g][1]benzopyran-7-on], for which the “nH (Kv1.3)” value at Kv1.3 is listed as 2.1. The compound further displayed an EC50 at Kv1.5 of 0.02 µM.

With `COc1cc(OC)cc(OCCCOc2c3ccoc3cc3oc(=O)ccc23)c1` [AS104, 4-[3-(3,5-Dimethoxyphenoxy)propoxy]-7H-furo[3,2-g][1]benzopyran-7-on], at Kv1.3, the “nH (Kv1.3)” value was 2.2.

As for `O=c1ccc2c(OCCCCOc3cccc4ccccc34)c3ccoc3cc2o1` [AS111], the “nH (Kv1.3)” value on Kv1.3 is reported as 2.0. At Kv1.5, the EC50 worked out at 0.05 ± 0.005 µM and the “nH (Kv1.5)” value is 2.0.

For the compound `O=c1ccc2c(OCCCCOc3ccc4ccccc4c3)c3ccoc3cc2o1` [AS118], at Kv1.3, the “nH (Kv1.3)” value is 2.1. Besides, at Kv1.5, the midpoint of the response, the EC50, lay at 0.08 ± 0.01 µM and the “nH (Kv1.5)” value is reported as 2.0.

For `O=c1ccc2c(OCCCOc3ccc(Cl)cc3)c3ccoc3cc2o1` [AS132, 4-[3-(4-Chlorphenoxy)propoxy]-7H-furo[3,2-g][1]benzopyran-7-on], on Kv1.3 (listed as drawing 81), the “nH (Kv1.3)” value was found to be 2.0. The “nH (Kv1.5)” value at Kv1.5 amounted to 2.0. At Kv1.5 (cells unit inferred), the concentration giving a half-maximal response (EC50) is 0.025 ± 0.002 µM.

Regarding `O=c1ccc2c(OCCCCOc3ccccc3)c3ccoc3cc2o1` [PAP 1, 4-(4-Phenoxybutoxy)-7H-furo[3,2-g][1]benzopyran-7-on], the EC50 is 98 ± 5 nM at Kv1.7; 1500 ± 700 nM on BK; 10000 ± 1000 nM on IKCa1; 0.045 ± 0.003 µM on Kv1.5; 75 ± 5 nM on Kv1.4; 65 ± 8 nM at Kv1.1. For the same compound, on Kv1.3, the “nH (Kv1.3)” value is 1.8. Also, the “nH (Kv1.5)” value at Kv1.5 is listed as 2.3.

With `O=c1ccc2c(OCCCOc3ccccc3)c3ccoc3cc2o1` [PAP 3, 4-(3-Phenoxypropoxy)-7H-furo[3,2-g][1]benzopyran-7-on], the EC50 was 0.1 ± 0.008 µM at Kv1.5, roughly 500 nM on Kv1.4 and 80 ± 10 nM at Kv1.1.

Regarding `O=c1ccc2c(OCCCCc3ccccc3)c3ccoc3cc2o1` [Psora-4], the inhibition of proliferation entry in assay [1] was “potently inhibited”.

Regarding `C=C1C[C@@]2(O)[C@@H]3CC[C@@]4(C)[C@@H]5C=CC(=O)OC[C@]5(C(C)OC(C)=O)[C@@H](OC(C)=O)[C@@H](OC(C)=O)[C@@H]4[C@@]3(C)[C@H](OC(C)=O)[C@H](OC(C)=O)[C@@]2(C)C2(C(=O)OC)O[C@H]12` (some centres unmarked) [correolide], in [2], the “suppression of the primary DTH response” value was “effectively suppress” and the “suppression of the secondary DTH response” value was “much less effective”.

As for “MgTX: Kv1.3 blocker MgTX (TIINVKCTSPKQCLPPCKAQFGQSAGAKCMNGKCKCYPH; ends and bridges not checked; cysteine pairing not given here; UniProt P40755 1-39, looked up)”, in assay [2], the “suppression of the primary DTH response” value is given as “effectively suppress” and the “suppression of the secondary DTH response” value was “much less effective”.
